Results published in patent publication US9790231B2 (LUPIN LIMITED, priority 2013, dated 2017).

Tested on: IL-2 secretion by Jurkat T cells
Assay: Inhibition of IL-2 secretion (PHA-stimulated Jurkat T cells, ELISA)
Assay type: cell-based
Details: Homo sapiens, 20 to 24 hours
Description: The CRAC channel modulatory activity of the compounds were thus evaluated by measuring the secretion of IL-2 by antigen stimulated T-cells in vitro. Alternatively, such activity can also be evaluated by assay methods known to one skilled in the art.
Inhibition of IL-2 secretion: Jurkat T cells were seeded at a density of 0.5 to 1 million cells per well in RPMI medium. Test compounds from this invention were added to the cells at different concentrations. This was followed by the addition of PHA, a T cell mitogen after 10 minutes. The cells were then incubated for 20 to 24 hours in a CO2 incubator at 37° C. After incubation with the compounds, cells were centrifuged; the supernatant was collected and processed for ELISA to quantitate the amount of IL-2 secreted. A commercial ELISA kit (R&D Systems, Inc. Minneapolis, Minn., USA) was used to estimate the IL-2 concentrations. Amount of IL-2 secreted by cells stimulated with PHA was considered as a 100% maximal signal and the decrease in amount of IL-2 secreted by cells treated with the test compounds was expressed as percent inhibition of the maximal signal. The dose response data was analyzed using 4-parametric sigmoidal dose response (variable slope) curve-fit.

| Structure (SMILES) | IC50 |
| --- | --- |
| Cc1ccc2c(c1)OC1(C=C2c2ccc(NC(=O)c3c(F)cccc3F)cc2)CCC1 [Example 77, 2,6-Difluoro-N-(4-(7-methylspiro[chromene-2,1′-cyclobutan]-4-yl)phenyl)benzamide] | 50 to 100 nM |
| Cc1cc2c(cc1-c1ccc(C(=O)Nc3c(F)cncc3F)cc1)OC(C)(C)CC2=O [Example 43, N-(3,5-Difluoropyridin-4-yl)-4-(2,2,6-trimethyl-4-oxochroman-7-yl)benzamide] | 100 to 500 nM |
| CC1(CO)C=C(c2ccc(NC(=O)c3c(F)cccc3F)cc2)c2ccccc2O1 (stereo not shown) [Example 93, 2,6-Difluoro-N-(4-(2-(hydroxymethyl)-2-methyl-2H-chromen-4-yl)phenyl)benzamide] | 50 to 100 nM |
| CC1(C)C=C(c2cnc(NC(=O)c3c(F)cccc3F)cn2)c2ccccc2O1 [Example 81, N-(5-(2,2-Dimethyl-2H-chromen-4-yl)pyrazin-2-yl)-2,6-difluorobenzamide] | 50 to 100 nM |
| Cc1c(-c2ccc(NC(=O)c3c(F)cccc3F)cc2)ccc2c1OC1(CCC1)CC2=O [Example 19, 2,6-Difluoro-N-(4-(8-methyl-4-oxospiro[chroman-2,1′-cyclobutan]-7-yl)phenyl)benzamide] | 100 to 500 nM |
| Cc1cc2c(cc1-c1ccc(NC(=O)c3c(F)cccc3F)cc1)OC(C)(C)CC2N(C)C (stereo not shown) [Example 62, N-(4-(4-(Dimethylamino)-2,2,6-trimethylchroman-7-yl)phenyl)-2,6-difluorobenzamide] | 50 to 100 nM |
| CCc1cc2c(cc1-c1ccc(NC(=O)c3c(F)cccc3F)cc1)OC(C)(CO)CC2=O (stereo not shown) [Example 58, N-(4-(6-Ethyl-2-(hydroxymethyl)-2-methyl-4-oxochroman-7-yl)phenyl)-2,6-difluorobenzamide] | 50 to 100 nM |
| Cc1ccc2c(c1)OC1(C=C2c2ccc(NC(=O)c3c(F)cccc3F)nc2)CCC1 [Example 109, 2,6-Difluoro-N-(5-(7-methylspiro[chromene-2,1′-cyclobutan]-4-yl)pyridin-2-yl)benzamide] | 100 to 500 nM |
| Cc1c(-c2cnc(NC(=O)c3c(F)cccc3F)cn2)ccc2c1OC(C)(C)CC2 [Example 7, 2,6-Difluoro-N-(5-(2,2,8-trimethylchroman-7-yl)pyrazin-2-yl)benzamide] | 50 to 100 nM |
| Cc1cc2c(cc1-c1ccc(C(=O)Nc3c(Cl)cncc3Cl)cc1)OC1(CCC1)CC2 [Example 67, N-(3,5-Dichloropyridin-4-yl)-4-(6-methylspiro[chroman-2,1′-cyclobutan]-7-yl)benzamide] | 25 to 50 nM |
| Cc1ccc2c(c1)C(c1cnc(NC(=O)c3c(F)cccc3F)cn1)=CC1(CCC1)O2 [Example 76, 2,6-Difluoro-N-(5-(6-methylspiro[chromene-2,1′-cyclobutan]-4-yl)pyrazin-2-yl)benzamide] | 50 to 100 nM |
| Cc1cc2c(cc1-c1ccc(NC(=O)c3c(F)cccc3F)nc1)OC(C)(C)CC2=O [Example 6] | 25 to 50 nM |
| Cc1cc2c(cc1-c1ccc(NC(=O)c3c(C)cccc3F)cc1)OC1(CCC1)CC2=O [Example 10, 2-Fluoro-6-methyl-N-(4-(6-methyl-4-oxospiro[chroman-2,1′-cyclobutan]-7-yl)phenyl)benzamide] | 25 to 50 nM |
| O=C(Nc1ccc(C2CC3(CCC3)Oc3ccccc32)cc1)c1c(F)cccc1F (stereo not shown) [Example 69, 2,6-Difluoro-N-(4-(spiro[chroman-2,1′-cyclobutan]-4-yl)phenyl)benzamide] | 100 to 500 nM |
| Cc1cc2c(cc1-c1ccc(NC(=O)c3c(F)cccc3Cl)cc1)OC1(CCC1)CC2=O [Example 11, 2-Chloro-6-fluoro-N-(4-(6-methyl-4-oxospiro[chroman-2,1′-cyclobutan]-7-yl)phenyl)benzamide] | 25 to 50 nM |
| CC1(C)CC(c2ccc(NC(=O)c3c(F)cccc3F)cc2)c2ccccc2O1 (stereo not shown) [Example 80, N-(4-(2,2-Dimethylchroman-4-yl)phenyl)-2,6-difluorobenzamide] | 100 to 500 nM |
| Cc1cc2c(cc1-c1cnc(NC(=O)c3c(F)cccc3F)cn1)OC(C)(CO)CC2 (stereo not shown) [Example 114, 2,6-Difluoro-N-(5-(2-(hydroxymethyl)-2,6-dimethylchroman-7-yl)pyrazin-2-yl)benzamide] | 25 to 50 nM |

Continued, values first:

| IC50 | Structure (SMILES) |
| --- | --- |
| 25 to 50 nM | Cc1cc2c(cc1-c1ccc(NC(=O)c3c(C)cccc3F)cc1)OC1(CCC1)CC2 [Example 9, 2-Fluoro-6-methyl-N-(4-(6-methylspiro[chroman-2,1′-cyclobutan]-7-yl)phenyl)benzamide] |
| < 25 nM | CCc1cc2c(cc1-c1ccc(C(=O)Nc3c(F)cncc3F)cc1)OC(C)(C)CC2 [Example 49, N-(3,5-Difluoropyridin-4-yl)-4-(6-ethyl-2,2-dimethylchroman-7-yl)benzamide] |
| < 25 nM | CCc1cc2c(cc1-c1ccc(NC(=O)c3c(F)cccc3F)cc1)OC(C)(C)CC2 [Example 48b, N-(4-(6-Ethyl-2,2-dimethylchroman-7-yl)phenyl)-2,6-difluorobenzamide] |
| < 25 nM | Cc1cccc2c1OC1(C=C2c2ccc(NC(=O)c3c(F)cccc3F)nc2)CCC1 [Example 101, 2,6-Difluoro-N-(5-(8-methylspiro[chromene-2,1′-cyclobutan]-4-yl)pyridin-2-yl)benzamide] |
| < 25 nM | CCc1cc2c(cc1-c1ccc(NC(=O)c3c(F)cccc3F)cc1)OC(C)(C)CC2=O [Example 2, N-(4-(6-Ethyl-2,2-dimethyl-4-oxochroman-7-yl)phenyl)-2,6-difluorobenzamide] |
| < 25 nM | Cc1cc2c(cc1-c1ccc(C(=O)Nc3c(F)cncc3F)cc1)OC(C)(C)CC2 [Example 50, N-(3,5-Difluoropyridin-4-yl)-4-(2,2,6-trimethylchroman-7-yl)benzamide] |
| < 25 nM | CCc1cc2c(cc1-c1cnc(NC(=O)c3c(F)cccc3F)cn1)OC(C)(C)CC2=O [Example 5, N-(5-(6-Ethyl-2,2-dimethyl-4-oxochroman-7-yl)pyrazin-2-yl)-2,6-difluorobenzamide] |
| 25 to 50 nM | COCC1(C)C=C(c2ccc(NC(=O)c3c(F)cccc3F)cc2)c2cc(C)ccc2O1 (stereo not shown) [Example 91] |
| < 25 nM | COCC1(C)C=C(c2cnc(NC(=O)c3c(F)cccc3F)cn2)c2cccc(C)c2O1 (stereo not shown) [Example 103, 2,6-Difluoro-N-(5-(2-(methoxymethyl)-2,8-dimethyl-2H-chromen-4-yl)pyrazin-2-yl)benzamide] |
| 25 to 50 nM | Cc1cc2c(cc1-c1ccc(NC(=O)c3c(F)cccc3F)cc1)OC1(CC2=O)CN(C)C1 [Example 121, N-(4-(1,6′-Dimethyl-4′-oxospiro[azetidine-3,2′-chroman]-7′-yl)phenyl)-2,6-difluorobenzamide] |
| < 25 nM | Cc1cccc2c1OC1(C=C2c2cnc(NC(=O)c3c(F)cccc3F)cn2)CCC1 [Example 100, 2,6-Difluoro-N-(5-(8-methylspiro[chromene-2,1′-cyclobutan]-4-yl)pyrazin-2-yl)benzamide] |
| < 25 nM | CCc1cc2c(cc1-c1ccc(NC(=O)c3c(F)cccc3F)cc1)OC1(COC1)CC2=O [Example 125, N-(4-(6-Ethyl-4-oxospiro[chroman-2,3′-oxetan]-7-yl)phenyl)-2,6-difluorobenzamide] |
| < 25 nM | Cc1cc2c(cc1-c1cnc(NC(=O)c3c(F)cccc3F)cn1)OC1(CCC1)CC2=O [Example 36, 2,6-Difluoro-N-(5-(6-methyl-4-oxospiro[chroman-2,1′-cyclobutan]-7-yl)pyrazin-2-yl)benzamide] |
| < 25 nM | CCc1cc2c(cc1-c1ccc(C(=O)Nc3c(F)cncc3F)cc1)OC(C)(C)CC2=O [Example 42, N-(3,5-Difluoropyridin-4-yl)-4-(6-ethyl-2,2-dimethyl-4-oxochroman-7-yl)benzamide] |
| < 25 nM | Cc1c(-c2ccc(NC(=O)c3c(F)cccc3F)cc2)ccc2c1OC(C)(C)CC2 [Example 59, 2,6-Difluoro-N-(4-(2,2,8-trimethylchroman-7-yl)phenyl)benzamide] |
| < 25 nM | O=C(Nc1ccc(C2=CC3(CCC3)Oc3ccccc32)cc1)c1c(F)cccc1F [Example 68, 2,6-Difluoro-N-(4-(spiro[chromene-2,1′-cyclobutan]-4-yl)phenyl)benzamide] |
| < 25 nM | CCc1cc2c(cc1-c1ccc(NC(=O)c3c(F)cccc3F)cc1)OC1(CCC1)CC2=O [Example 20, N-(4-(6-Ethyl-4-oxospiro[chroman-2,1′-cyclobutan]-7-yl)phenyl)-2,6-difluorobenzamide] |
